Laboratory results reported in ChEMBL document CHEMBL4334438, “Discovery of novel glycogen synthase kinase-3α inhibitors: Structure-based virtual screening, preliminary SAR and biological evaluation for treatment of acute myeloid leukemia” (Eur J Med Chem, 2019).

Experiments:
[1] = target: Insulin receptor-related protein (Homo sapiens) (UniProt P14616); assay: Inhibition of human IRR (943 to 1266 residues) assessed as residual activity at 1 uM using myelin basic protein as substrate after 40 mins by [gamma-33ATP] radiometric assay relative to control
[2] = target: Mitogen-activated protein kinase kinase kinase 9 (Homo sapiens) (UniProt P80192); assay: Inhibition of recombinant human MLK1 (134 to 414 residues) assessed as residual activity at 1 uM using casein as substrate incubated for 40 mins in presence of [gamma-33ATP by scintillation counting based radiometry assay relative to control
[3] = system: Glycogen synthase kinase-3 alpha (Homo sapiens), P49840 [UNDEFINED MUTATION]; assay: Inhibition of human GSK-3alpha S449A mutant (2 to end residues) assessed as residual activity at 1 uM using phospho GS2 peptide as substrate after 40 mins by [gamma-33ATP] radiometric assay
[4] = target: Cyclin-dependent kinase-like 1 (Homo sapiens) (UniProt Q00532); assay: Inhibition of recombinant human CDKL1 (1 to 303 residues) assessed as residual activity at 1 uM using RRRFRPASPLRGP as substrate measured after 120 mins in presence of [gamma33P]ATP by scintillation counting method
[5] = target: Mitogen-activated protein kinase kinase kinase kinase 4 (Homo sapiens) (UniProt O95819); assay: Inhibition of recombinant human MAP4K4 (1 to 328 residues) assessed as residual activity at 1 uM using RLGRDKYKTLRQIRQ as substrate incubated for 40 mins in presence of [gamma-33ATP by scintillation counting based radiometry assay relative to control
[6] = target: Platelet-derived growth factor receptor beta (Homo sapiens) (UniProt P09619); assay: Inhibition of human PDGFRbeta (557 to end residues) assessed as residual activity at 1 uM using poly(Glu, Tyr) 4:1 as substrate measured after 40 mins in presence of [gamma33P]ATP by scintillation counting method relative to control
[7] = target: Serine/threonine-protein kinase 24 (Homo sapiens) (UniProt Q9Y6E0); assay: Inhibition of recombinant human MST3 (1 to 304 residues) assessed as residual activity at 1 uM using ERMRPRKRQGSVRRRV as substrate measured after 40 mins in presence of [gamma33P]ATP by scintillation counting method relative to control
[8] = target: Serine/threonine-protein kinase SIK1 (Homo sapiens) (UniProt P57059); assay: Inhibition of recombinant human SIK (1 to 281 residues) assessed as residual activity at 1 uM using AMARAASAAALARRR as substrate measured after 40 mins in presence of [gamma33P]ATP by scintillation counting method assay relative to control
Serine/threonine-protein kinase SIK1 (Homo sapiens), sequence (P57059 whole entry, the tested form may be a part): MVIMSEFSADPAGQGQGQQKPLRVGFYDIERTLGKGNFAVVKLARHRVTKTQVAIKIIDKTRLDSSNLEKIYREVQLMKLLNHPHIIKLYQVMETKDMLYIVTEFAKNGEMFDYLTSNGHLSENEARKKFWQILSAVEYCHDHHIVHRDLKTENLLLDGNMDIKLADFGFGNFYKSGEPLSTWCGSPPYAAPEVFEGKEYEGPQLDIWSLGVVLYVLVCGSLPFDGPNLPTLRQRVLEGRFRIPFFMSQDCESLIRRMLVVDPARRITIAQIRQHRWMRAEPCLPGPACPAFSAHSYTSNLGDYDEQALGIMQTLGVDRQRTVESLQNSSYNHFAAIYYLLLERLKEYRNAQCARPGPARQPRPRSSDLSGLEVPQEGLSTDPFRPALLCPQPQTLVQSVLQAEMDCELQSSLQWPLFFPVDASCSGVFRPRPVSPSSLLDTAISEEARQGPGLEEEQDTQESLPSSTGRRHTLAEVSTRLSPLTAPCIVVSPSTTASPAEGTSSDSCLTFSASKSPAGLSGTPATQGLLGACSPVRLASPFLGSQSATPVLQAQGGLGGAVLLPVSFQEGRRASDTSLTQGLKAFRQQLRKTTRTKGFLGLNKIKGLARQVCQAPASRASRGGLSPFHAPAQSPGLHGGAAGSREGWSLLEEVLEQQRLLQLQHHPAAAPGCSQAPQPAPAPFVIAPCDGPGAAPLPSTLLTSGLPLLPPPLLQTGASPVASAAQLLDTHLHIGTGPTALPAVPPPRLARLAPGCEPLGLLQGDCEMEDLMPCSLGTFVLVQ

[9] = target: Serine/threonine-protein kinase WNK2 (Homo sapiens) (UniProt Q9Y3S1); assay: Inhibition of human WNK2 (166 to 489 residues) assessed as residual activity at 1 uM using myelin basic protein as substrate measured after 40 mins in presence of [gamma33P]ATP by scintillation counting method relative to control
[10] = target: Protein kinase C beta type (Homo sapiens) (UniProt P05771); assay: Inhibition of recombinant human PKCbeta2 (2 to end residues) assessed as residual activity at 1 uM using histone H1 as substrate measured after 40 mins in presence of [gamma33P]ATP by scintillation counting method relative to control
[11] = target: Tyrosine-protein kinase Fer (Homo sapiens) (UniProt P16591); assay: Inhibition of recombinant human FER (541 to end residues) assessed as residual activity at 1 uM using KKKSPGEYVNIEFG as substrate at 40 mins in presence of [gamma-33ATP] by scintillation counting based radiometry assay relative to control
[12] = target: Protein kinase C iota type (Homo sapiens) (UniProt P41743); assay: Inhibition of recombinant full-length human PKCiota assessed as residual activity at 1 uM using ERMRPRKRQGSVRRRV as substrate incubated for 40 mins in presence of [gamma33P]ATP by scintillation counting based radiometry assay relative to control
[13] = target: Serine/threonine-protein kinase pim-3 (Homo sapiens) (UniProt Q86V86); assay: Inhibition of recombinant human Pim3 (2 to end residues) assessed as residual activity at 1 uM using RSRHSSYPAGT as substrate measured after 40 mins in presence of [gamma33P]ATP by scintillation counting method relative to control
[14] = target: Receptor tyrosine-protein kinase erbB-4 (Homo sapiens) (UniProt Q15303); assay: Inhibition of recombinant human ERBB4 (706 to 991 residues) assessed as residual activity at 1 uM using poly(Glu, Tyr) 4:1 as substrate at 40 mins in presence of [gamma-33ATP] by scintillation counting based radiometry assay relative to control
[15] = target: Ephrin type-A receptor 7 (Homo sapiens) (UniProt Q15375); assay: Inhibition of recombinant human EphA7 (613 to 909 residues) assessed as residual activity at 1 uM using KTFCGTPEYLAPEVRREPRILSEEEQEMFRDFDYIADWC as substrate at 40 mins in presence of [gamma-33ATP] by scintillation counting based radiometry assay relative to control
[16] = target: Non-receptor tyrosine-protein kinase TYK2 (Homo sapiens) (UniProt P29597); assay: Inhibition of human TYK2 (875 to end residues) assessed as residual activity at 1 uM using GGMEDIYFEFMGGKKK as substrate measured after 40 mins in presence of [gamma33P]ATP by scintillation counting method relative to control
Non-receptor tyrosine-protein kinase TYK2 (Homo sapiens), sequence (P29597 whole entry, the tested form may be a part): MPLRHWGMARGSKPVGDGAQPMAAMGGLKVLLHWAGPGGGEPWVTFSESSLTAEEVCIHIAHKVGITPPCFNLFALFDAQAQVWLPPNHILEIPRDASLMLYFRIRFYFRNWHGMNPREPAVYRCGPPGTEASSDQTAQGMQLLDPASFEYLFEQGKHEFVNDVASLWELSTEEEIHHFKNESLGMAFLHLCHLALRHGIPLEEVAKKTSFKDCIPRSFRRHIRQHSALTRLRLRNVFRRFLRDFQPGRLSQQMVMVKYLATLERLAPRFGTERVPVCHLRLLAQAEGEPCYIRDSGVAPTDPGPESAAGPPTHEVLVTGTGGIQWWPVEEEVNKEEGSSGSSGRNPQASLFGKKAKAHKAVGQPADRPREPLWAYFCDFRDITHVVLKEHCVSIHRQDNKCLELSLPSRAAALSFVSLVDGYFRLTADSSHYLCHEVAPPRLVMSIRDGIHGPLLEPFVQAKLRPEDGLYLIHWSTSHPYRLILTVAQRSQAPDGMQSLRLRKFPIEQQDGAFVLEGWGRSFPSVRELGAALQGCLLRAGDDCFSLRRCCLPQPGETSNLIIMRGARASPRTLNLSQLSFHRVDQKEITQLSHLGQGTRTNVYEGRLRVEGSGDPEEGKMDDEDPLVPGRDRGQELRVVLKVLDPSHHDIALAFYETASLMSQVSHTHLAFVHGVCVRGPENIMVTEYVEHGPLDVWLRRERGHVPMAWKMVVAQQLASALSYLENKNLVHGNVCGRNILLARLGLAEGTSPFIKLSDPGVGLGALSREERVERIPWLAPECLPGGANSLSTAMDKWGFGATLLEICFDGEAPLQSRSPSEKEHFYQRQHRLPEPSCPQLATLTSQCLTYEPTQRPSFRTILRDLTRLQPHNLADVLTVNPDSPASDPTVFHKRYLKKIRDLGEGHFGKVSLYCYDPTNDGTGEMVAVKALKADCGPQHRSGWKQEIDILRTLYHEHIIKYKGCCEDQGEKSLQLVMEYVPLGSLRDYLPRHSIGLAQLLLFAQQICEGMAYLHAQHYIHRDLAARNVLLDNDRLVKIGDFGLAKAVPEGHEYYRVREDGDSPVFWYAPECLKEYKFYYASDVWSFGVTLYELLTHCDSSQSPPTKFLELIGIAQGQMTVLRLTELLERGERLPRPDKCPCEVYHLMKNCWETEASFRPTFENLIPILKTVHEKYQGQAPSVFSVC

[17] = target: Serine/threonine-protein kinase ICK (Homo sapiens) (UniProt Q9UPZ9); assay: Inhibition of human ICK (1 to 312 residues) assessed as residual activity at 1 uM using RRRFRPASPLRGPPK as substrate after 40 mins by [gamma-33ATP] radiometric assay relative to control
[18] = target: Myosin light chain kinase, smooth muscle (Homo sapiens) (UniProt Q15746); assay: Inhibition of recombinant human MLCK (1425 to 1771 residues) assessed as residual activity at 1 uM […] incubated for 40 mins in presence of [gamma-33ATP by scintillation counting based radiometry assay relative to control
Myosin light chain kinase, smooth muscle (Homo sapiens), sequence (Q15746 whole entry, the tested form may be a part): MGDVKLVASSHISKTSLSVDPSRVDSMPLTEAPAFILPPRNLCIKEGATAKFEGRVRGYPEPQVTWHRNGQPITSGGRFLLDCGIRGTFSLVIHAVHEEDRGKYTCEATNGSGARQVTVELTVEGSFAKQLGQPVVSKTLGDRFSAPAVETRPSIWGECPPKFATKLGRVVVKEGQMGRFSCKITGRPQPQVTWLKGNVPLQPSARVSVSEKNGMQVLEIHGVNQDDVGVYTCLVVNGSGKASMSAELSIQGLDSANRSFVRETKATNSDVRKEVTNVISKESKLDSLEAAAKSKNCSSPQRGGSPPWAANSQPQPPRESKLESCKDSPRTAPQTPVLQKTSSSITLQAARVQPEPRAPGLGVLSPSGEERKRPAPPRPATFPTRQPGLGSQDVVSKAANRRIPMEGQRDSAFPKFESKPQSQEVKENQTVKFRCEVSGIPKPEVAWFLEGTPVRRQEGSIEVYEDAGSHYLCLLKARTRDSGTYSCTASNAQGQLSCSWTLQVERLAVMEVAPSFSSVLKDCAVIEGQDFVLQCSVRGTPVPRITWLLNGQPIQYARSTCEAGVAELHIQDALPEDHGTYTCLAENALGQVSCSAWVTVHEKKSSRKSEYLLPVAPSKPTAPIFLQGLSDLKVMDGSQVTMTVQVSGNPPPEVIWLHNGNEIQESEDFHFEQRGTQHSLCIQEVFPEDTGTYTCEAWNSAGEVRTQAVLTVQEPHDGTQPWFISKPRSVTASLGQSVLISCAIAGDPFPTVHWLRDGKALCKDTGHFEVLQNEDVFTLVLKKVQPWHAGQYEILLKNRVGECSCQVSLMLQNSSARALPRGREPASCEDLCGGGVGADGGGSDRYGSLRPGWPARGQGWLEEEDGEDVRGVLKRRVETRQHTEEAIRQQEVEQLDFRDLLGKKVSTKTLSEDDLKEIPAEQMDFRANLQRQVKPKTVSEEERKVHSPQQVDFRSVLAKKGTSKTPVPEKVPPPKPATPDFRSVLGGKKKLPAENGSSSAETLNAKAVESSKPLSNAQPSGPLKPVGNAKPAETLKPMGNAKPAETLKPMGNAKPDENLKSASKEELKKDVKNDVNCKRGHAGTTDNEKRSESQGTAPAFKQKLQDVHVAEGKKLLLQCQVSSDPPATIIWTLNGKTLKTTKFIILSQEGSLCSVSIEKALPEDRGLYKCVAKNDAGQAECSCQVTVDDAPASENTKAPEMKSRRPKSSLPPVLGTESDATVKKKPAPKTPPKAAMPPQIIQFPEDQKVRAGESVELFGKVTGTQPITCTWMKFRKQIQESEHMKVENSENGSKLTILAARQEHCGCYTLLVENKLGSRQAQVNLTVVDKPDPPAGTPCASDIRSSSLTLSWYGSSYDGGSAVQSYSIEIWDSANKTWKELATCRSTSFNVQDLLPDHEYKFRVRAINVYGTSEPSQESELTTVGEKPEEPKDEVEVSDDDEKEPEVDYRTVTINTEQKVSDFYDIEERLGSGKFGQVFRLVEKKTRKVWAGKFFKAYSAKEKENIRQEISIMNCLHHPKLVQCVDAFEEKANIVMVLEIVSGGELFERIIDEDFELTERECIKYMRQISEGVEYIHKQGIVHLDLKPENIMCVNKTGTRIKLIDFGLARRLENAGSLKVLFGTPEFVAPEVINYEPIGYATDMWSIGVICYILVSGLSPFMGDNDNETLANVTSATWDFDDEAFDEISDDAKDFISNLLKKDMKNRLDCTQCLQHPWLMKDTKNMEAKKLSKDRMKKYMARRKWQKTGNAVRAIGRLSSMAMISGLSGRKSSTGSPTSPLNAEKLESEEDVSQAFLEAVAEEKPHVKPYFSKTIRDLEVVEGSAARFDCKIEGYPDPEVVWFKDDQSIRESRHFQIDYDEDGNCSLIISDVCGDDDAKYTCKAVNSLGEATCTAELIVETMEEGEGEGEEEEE

[19] = target: Dual specificity mitogen-activated protein kinase kinase 2 (Homo sapiens) (UniProt P36507); assay: Inhibition of recombinant human MEK2 assessed as residual activity at 1 uM using MBP as substrate incubated for 40 mins in presence of [gamma-33ATP by scintillation counting based radiometry assay relative to control
Homo sapiens = species on record: Homo sapiens; assay: Inhibition of recombinant human FLT4 V1128L/ H1146R double mutant (800 to end residues) assessed as residual activity at 1 uM using GGEEEEYFELVKKKK as substrate at 40 mins in presence of [gamma-33ATP] by scintillation counting based radiometry assay relative to control
[20] = target: Serine/threonine-protein kinase PAK 6 (Homo sapiens) (UniProt Q9NQU5); assay: Inhibition of recombinant human PAK6 (382 to end residues) assessed as residual activity at 1 uM using RRRLSFAEPG as substrate measured after 40 mins in presence of [gamma33P]ATP by scintillation counting method relative to control
Serine/threonine-protein kinase PAK 6 (Homo sapiens), sequence (Q9NQU5 whole entry, looked up): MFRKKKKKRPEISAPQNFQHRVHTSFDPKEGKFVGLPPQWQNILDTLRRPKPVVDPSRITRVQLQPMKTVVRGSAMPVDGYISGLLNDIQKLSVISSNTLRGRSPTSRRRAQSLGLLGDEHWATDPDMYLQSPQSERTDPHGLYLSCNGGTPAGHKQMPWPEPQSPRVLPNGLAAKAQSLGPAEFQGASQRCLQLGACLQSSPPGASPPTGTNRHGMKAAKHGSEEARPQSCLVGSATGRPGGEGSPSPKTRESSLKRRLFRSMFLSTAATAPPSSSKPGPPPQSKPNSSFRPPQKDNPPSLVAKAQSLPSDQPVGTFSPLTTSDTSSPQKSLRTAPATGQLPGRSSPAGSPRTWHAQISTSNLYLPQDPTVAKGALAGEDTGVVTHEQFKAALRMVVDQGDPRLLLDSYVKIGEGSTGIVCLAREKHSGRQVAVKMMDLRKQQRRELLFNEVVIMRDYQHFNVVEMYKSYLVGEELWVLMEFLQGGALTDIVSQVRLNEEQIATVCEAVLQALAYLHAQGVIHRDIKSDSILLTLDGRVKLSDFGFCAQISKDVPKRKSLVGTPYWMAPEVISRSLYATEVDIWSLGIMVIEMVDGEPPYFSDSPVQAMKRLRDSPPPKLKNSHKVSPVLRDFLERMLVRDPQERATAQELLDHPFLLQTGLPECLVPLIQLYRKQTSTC

C=CCOC(=O)c1cc(-c2ccc(/C=C3/NC(=S)NC3=O)o2)ccc1Cl
Activity [1]: 45%
Activity [2]: 99%
Activity [3]: 10%
Activity [4]: 78%
Activity [5]: 95%
Activity [6]: 108%
Activity [7]: 106%
Activity [8]: 107%
Activity [9]: 85%
Activity [10]: 100%
Activity [11]: 105%
Activity [12]: 105%
Activity [13]: 33%
Activity [14]: 90%
Activity [15]: 99%
Activity [16]: 94%
Activity [17]: 28%
Activity [18]: 89%
Activity [19]: 104%
Activity (Homo sapiens): 82%
Activity [20]: 107%

N=C1NC(=O)/C(=C\c2ccc(-c3cccc([N+](=O)[O-])c3)o2)S1
Activity [1]: 55%
Activity [2]: 98%
Activity [3]: 8%
Activity [4]: 85%
Activity [5]: 82%
Activity [6]: 103%
Activity [7]: 105%
Activity [8]: 105%
Activity [9]: 88%
Activity [10]: 92%
Activity [11]: 93%
Activity [12]: 102%
Activity [13]: 21%
Activity [14]: 99%
Activity [15]: 101%
Activity [16]: 107%
Activity [17]: 18%
Activity [18]: 37%
Activity [19]: 100%
Activity (Homo sapiens): 116%
Activity [20]: 91%
